Patent US7981892B2, “Disubstituted phthalazine hedgehog pathway antagonists” (Eli Lilly and Company, priority 2008, dated 2011)
Where a name gives a salt, the structure may show the parent alone.

System: Gli1 transcript in Daoy cells stimulated with Shh conditioned media
Assay: Functional assay for measuring the inhibition of Gli1 in Daoy cells (bDNA assay of Gli1 transcript after Shh-conditioned media stimulation)
Assay type: cell-based
Details: Homo sapiens; Daoy cells treated with Shh-CM, 24 hours incubation with compound, Gli1 transcript by bDNA luminescence
Procedure: Biological activity is determined using a functional assay in Daoy neuronal cancer cells and measures levels of Gli1 ribonucleic, acid via a bDNA. (branched deoxyribonucleic acid) assay system (Panomies, Inc., Fremont, Calif.), Gli was originally discovered in a Glioblastoma cell line and encodes a zinc finger protein that is activated by Shh signaling. The maximum response is obtained by inducing Gli1 transcription in the Daoy cells with conditioned medium (HEK-293 cells stably expressing recombinant Shb) for 24 hours and. then measuring the amount of stimulated Gli1 transcript. […]
The bDNA assay system utilizes the technology of branched-chain DNA to allow amplification of a target ribonucleic acid (transcript). […] The addition of a chemilumigenic substrate during the amplification step allows for detection using luminescence, […]
Daoy cells are grown to conflunency in tissue culture T225-flasks in Daoy growth media containing Minimum Essential Medium (MEM) plus 10% Fetal Bovine Serum (FBS) with […] non-essential amino acids and 1 mM sodium pyruvate. The cells are removed from the T225-flasks using trypsin ethylenediaminetetraacetic acid (EDTA), centrifuged, resuspended in media, and then counted. […]

IC50: ~2.37 nM
SMILES: CN(C(=O)c1c(F)cccc1C(F)(F)F)C1CCN(c2nnc(-c3ccccc3)c3ccccc23)CC1 [Example 36, 2-Fluoro-N-methyl-N-(1-(4-phenylphthalazin-1-yl)piperidin-4-yl)-6-(trifluoromethyl)benzamide hydrochloride]
